Experiments:
latent HIV-1 proviruses = conditions: background, literature; cited from earlier work
[1] = recently reported (ref. 43); cited from earlier work
[2] = tested on: latent HIV-1 vector provirus in NLE-S-G infected SupT1 cells; experiment: SEAP assay, mass population of NLE-S-G infected SupT1 cells; type: cell-based; conditions: mass population three weeks post-infection, TNF-α 100 ng/ml, four days post activation
Description: The infected mass population of cells was next tested for its ability to establish a latent infection. The infected mass population of SupT1 cells was maintained in culture for one month. […] This was also reflected in the reduction of SEAP expression by the third week (FIG. 2C). It was shown in previous studies that tumor necrosis factor (TNF)-α could activate HIV-1 virus production from latently infected cell lines (30).
1×10^6 or 1×10^5 cells from the clonal cell lines or mass populations of infected cells were resuspended in RPMI media with or without the activator. At the indicated day post plating, samples were taken to determine the activity of SEAP. The assay was performed using a SEAP Detection kit (BD Biosciences, Palo Alto, Calif.) according to the manufacturer's protocol. The relative light units (RLU) were measured with a tube luminometer (Turner Designs 20/20) or a MLX Microtiter Plate Luminometer (DYNEX Technologies).

[3] = tested on: latent HIV-1 vector provirus in 29ST1NLESG cells; experiment: SEAP assay for late gene expression, 29ST1NLESG cells; type: cell-based; conditions: TNF-α 50 ng/ml, day 2 post treatment
Protocol: (§1) FIG. 3. Reactivation of early and late viral gene expression in three clonal cell lines by TNF-α. (A) 19ST1NLESG, 24ST1NLESG, and 29ST1NLESG cells (10^6/ml) were exposed to TNF-α (50 ng/ml) and four days after gfp expressing cells were analyzed by flow cytometry. The left panels show the histograms of unstimulated cells, and the right panels represent the histogram analysis of TNF-α (50 ng/ml) stimulated cells. Numbers show the percentages of gfp positive cells. (B) SEAP in the cultured media of untreated and TNF-α (50 ng/ml) stimulated 19ST1NLESG, 24ST1NLESG, 29ST1NLESG cells two and four days post plating. (C) Fold induction of SEAP expression in 19ST1NLESG, 24ST1NLESG, and 29ST1NLESG cells (10^6/m1) after stimulation with TNF-α (50 ng/ml). Readings were taken on the second and fourth days post activation. […]
(§2) In order to provide a well characterized system to identify molecules that can activate latent virus, SupT1 cell clones harboring latent vector provirus were isolated. […] Even at 0.1 ng/ml of TNF-α induction could be detected yielding SEAP activity 4-fold above background (FIG. 4).
(§3) 1×10^6 or 1×10^5 cells from the clonal cell lines or mass populations of infected cells were resuspended in RPMI media with or without the activator. […] The relative light units (RLU) were measured with a tube luminometer (Turner Designs 20/20) or a MLX Microtiter Plate Luminometer (DYNEX Technologies).

[4] = tested on: latent HIV-1 vector provirus in 24ST1NLESG cells; experiment: Quantitative real-time RT-PCR of HIV-1 mRNA, 24ST1NLESG cells; type: cell-based; conditions: TNF-α 50 ng/ml, day 4 post-stimulation, normalized to β-actin
Protocol: FIG. 6. Real-time RT-PCR for relative quantification of HIV-1 mRNA levels in 24ST1NLESG cells before and after activation from latency. Quantitative real-time RT-PCR was performed with RNA isolated from 24ST1NLESG cells (10^6/ml) following one and four days after stimulation with TNF-α (50 ng/ml). cDNA was synthesized with polyT oligo, and the reactions were completed with primers to viral (Rev2) and cellular (β-actin) genes with SYBR green detection. The ‘Delta-delta method’ (PE Applied Biosystems) was used to compare the relative expression results (ΔCT) between the values obtained from the RNA samples from stimulated cells to the values obtained from RNA isolated from untreated cells. The results were normalized to the expression of β-actin. […]
The consistent reactivation of viral genes as evidenced by the pattern of expression of the three markers assayed correlated with an increase in the relative levels of total viral mRNA. The relative amount of total HIV-1 mRNA was determined by quantitative real-time PCR using primers to the second exon of rev (Rev2). […] Therefore, only the level of mature polyadenylated RNA was detected.
The relative ratio of viral RNA after stimulation of 24ST1NLESG latent cells was determined as described in the Examples using the relative RNA results obtained for the unstimulated 24ST1NLESG cells as a control. β-actin was used as a reference gene. […]

[5] = tested on: latent HIV-1 vector provirus in 24ST1NLESG cells; experiment: SEAP assay for late gene expression, 24ST1NLESG cells; type: cell-based; conditions: for fold induction in SEAP activity: TNF-α 50 ng/ml
Protocol: FIG. 3. Reactivation of early and late viral gene expression in three clonal cell lines by TNF-α. (A) 19ST1NLESG, 24ST1NLESG, and 29ST1NLESG cells (10^6/ml) were exposed to TNF-α (50 ng/ml) and four days after gfp expressing cells were analyzed by flow cytometry. The left panels show the histograms of unstimulated cells, and the right panels represent the histogram analysis of TNF-α (50 ng/ml) stimulated cells. Numbers show the percentages of gfp positive cells. (B) SEAP in the cultured media of untreated and TNF-α (50 ng/ml) stimulated 19ST1NLESG, 24ST1NLESG, 29ST1NLESG cells two and four days post plating. (C) Fold induction of SEAP expression in 19ST1NLESG, 24ST1NLESG, and 29ST1NLESG cells (10^6/m1) after stimulation with TNF-α (50 ng/ml). Readings were taken on the second and fourth days post activation. Results shown are the means and standard deviations of one of three representative experiments.
FIG. 4. SEAP activation in 24ST1NLESG cells at different concentrations of TNF-α. SEAP synthesis by 24ST1NLESG cells (10^6/ml) four days post-activation with various concentrations (0.1 to 100 ng/ml) of TNF-α. The numbers above the bars show the fold induction of enzymatic activity calculated as ratio between the average value of RLU per sample induced cells compared to the mean RLU value of uninduced cells. RLU, relative light units. Results shown are the means and standard deviations of one of three representative experiments.
as §2, §3

[6] = tested on: latent HIV-1 vector provirus in 24ST1NLESG cells; experiment: HIV-1 p24gag ELISA, 24ST1NLESG cells; type: cell-based; conditions: TNF-α 50 ng/ml
Protocol: FIG. 5. HIV-1 Gag p24 protein production in 24ST1NLESG cells. HIV-1 Gag p24 protein was detected in the cultured media of untreated and TNF-α (50ng/ml) treated 24ST1NLESG cells (10^6/ml) two and four days post-plating. Results shown are the means and standard deviations of one or two representative experiments.
To further characterize the 24ST1NLESG cell line, p24^gag expression was monitored using the ELISA after treatment with TNF-α (50 ng/ml) (FIG. 5).
HIV gag transfer assay. 1×10^6 SupT1 infected cells (latent mass population and clonal cell lines) were plated followed by harvesting supernatant one week later. Samples were collected both from TNF-α activated and untreated cells. They were passed through a 0.45-μm pore-size filter and used to inoculate […] 10^6 parental SupT1 cells for 24 h. The cells were washed twice with PBS and resuspended in fresh media. The same process was repeated once again with conditioned media from the targeted parental cells, and a new batch of SupT1 cells was treated. Passing the conditioned media over two sets of virgin SupT1 cells helps to assure that the carryover of gag protein in the samples will be eliminated and only the de novo synthesized protein, if present, will be assessed. […] Samples were considered virus free when the p24^gag concentration was below the detection threshold, which for this assay, was determined to be 10 pg/ml.

[7] = tested on: latent HIV-1 vector provirus in 19ST1NLESG cells; experiment: SEAP assay for late gene expression, 19ST1NLESG cells; type: cell-based; conditions: TNF-α 50 ng/ml, day 2 post treatment
Protocol: as §1, §2, §3

[8] = tested on: latent HIV-1 vector provirus in NLE-S-G infected SupT1 cells; experiment: Flow cytometry of GFP positive cells, mass population of NLE-S-G infected SupT1 cells; type: cell-based; conditions: mass population three weeks post-infection (2% before treatment), TNF-α 100 ng/ml, analyzed forty-eight hours after exposure
Description: FIG. 2. Infection of SupT1 cells by NLE^-S-G vector virus. (A) The upper panels depict uninfected SupT1 cells. The lower panels show SupT1 cells that have been infected with NLE-S-G virus. The phase contrast (left panels) and fluorescence microscopy (right panels) images were captured five days post-infection. (B) Flow cytometric analysis of SupT1 cells either mock infected or infected with NLE^−S-G analyzed at day five post-infection or three weeks post-infection. […] Three weeks post infection mass population of unsorted NLE^−S-G infected SupT1 cells (10^6 cells/ml) were stimulated with TNF-α (100 ng/ml). Cells were analyzed forty-eight hours after exposure. Numbers represent the percentages of gfp positive cells. (C) SEAP activity in the conditioned media from NLE^−S-G infected unsorted SupT1 cells (10^6 cells/ml) four days, three weeks and one month post-infection. Three weeks post-infection, a sample (10^6 cells/ml) of a mass population of NLE^−S-G infected SupT1 cells was treated with TNF-α (100 ng/ml) and analyzed four days post activation. RLU, relative light units.
The infected mass population of cells was next tested for its ability to establish a latent infection. The infected mass population of SupT1 cells was maintained in culture for one month. […] This was also reflected in the reduction of SEAP expression by the third week (FIG. 2C). […]

Compound	activation of latent virus (latent HIV-1 proviruses)	cytotoxicity [1]	increase in SEAP activity [2] [fold]	fold induction in SEAP activity [3] [fold]	increase in relative ratio of viral RNA [4]	SEAP activity above background ([5]; 0.1 ng/ml TNF-α, four days post-activation) [fold]	fold induction in SEAP activity ([5]; day 2 post treatment) [fold]	fold induction in SEAP activity ([5]; day 4)	concentration of p24gag above background ([6]; 2 days post-activation) [fold]	concentration of p24gag above background ([6]; 4 days post-activation) [fold]	fold induction in SEAP activity [7]	number of GFP-positive cells after treatment [8] [%]
CCCCCCCCCCCCCC(=O)O[C@@H]1[C@@H](C)[C@@]2(O)[C@@H](C=C(CO)C[C@]3(O)C(=O)C(C)=C[C@@H]23)[C@@H]2C(C)(C)[C@]12OC(C)=O [PMA, phorbol 12-myristate 13-acetate]	could stimulate latent virus	–	–	–	–	–	–	–	–	–	–	–
CC(=O)O[C@@]12C[C@@H](C)[C@@]3(O)[C@@H](C=C(CO)C[C@]4(O)C(=O)C(C)=C[C@@H]34)[C@@H]1C2(C)C [prostratin]	able to activate latent virus	significant cytotoxicity	–	–	–	–	–	–	–	–	–	–
TNF-α	–	–	400	~150	at least 100 fold	4	~400	approximately 600 fold	50	100	approximately 50 fold	19

From US9017935B2, “HIV-1 latency model for high throughput screening” (priority 2005, dated 2015)
